# Data published in patent US11691984B2, “Compounds and methods for DCAF-mediated protein degradation” (The Scripps Research Institute, priority 2018, dated 2023).
# How the values were obtained:
# Format in all cases: cell-based
# HA-DCAF16 = biological target: T1, HA-DCAF16 (Homo sapiens, UniProt Q9NXF7); assay: Western blot of HA-DCAF16 in DCAF16−/− cells; conditions: KB02-SLF 1.5 μM, 8 hours
# T1 construct: expressed in transfected cells; host or cells: HEK293T (A9); DCAF16-/- HEK293 clones (A20); pRK5 vector
# Procedure: (§1) Cells were collected and lysed in 1% NP-40 lysis buffer (25 mM Tris-HCl pH 7.4, 150 mM NaCl, 10% glycerol, 1% Nonidet P-40) with complete protease inhibitor cocktail (Roche). Cells were vortexed and sonicated for 5 pulses (40%, 4). The supernatant was collected after centrifugation at 16,000 g for 10 min at 4° C. Protein concentration was determined by DC assay (Bio-Rad). Protein lysate was heated at 95° C. for 5 min in 1× Laemmli sample buffer. Proteins were resolved by 12% or 14% Novex Tris-Glycine Mini Gels (Invitrogen) and transferred to polyvinylidene fluoride (PVDF) membrane (0.2 Bio-Rad). The membrane was blocked with 5% BSA in TBST buffer (0.1% Tween 20, 20 mM Tris-HCl 7.6, 150 mM NaCl) at room temperature for 1 h. The antibody was diluted with fresh 5% BSA in TBST buffer (1:10000 dilution for FLAG, HA and β-Actin, 1:1000 dilution for others) and incubated with membrane (1 h room temperature for FLAG, HA and β-Actin, overnight 4° C. for others). Membrane was washed three times with TBST buffer and incubated with secondary antibody (1:5000 dilution in 5% BSA in TBST) at room temperature for 1 h. Membrane was washed three times with TBST buffer. The chemiluminescence signal in membrane was recorded after developing in ECL or ECL plus western blotting detection reagent using CL-XPosure film (Thermo Scientific). Relative band intensities were quantified using ImageJ.
# BRD4 = biological target: T2, BRD4 (Homo sapiens, UniProt O60885); assay: Western blot of endogenous BRD4 in HEK293T cells; conditions: HEK293T, 24 hours
# T2 construct: degradation of endogenous BRD4 in HEK293T cells; endogenous in cells; host or cells: HEK293T (A10, A16); HEK293 DCAF16+/+ and DCAF16-/- clones (A11)
# Procedure: as §1
# BRD3 = biological target: T3, BRD3 (Homo sapiens, UniProt Q15059); assay: Proteome-wide SILAC MS protein abundance in HEK293T cells: BRD3; conditions: KB02-JQ1 20 μM, 24 hours
# T3 construct: endogenous in cells; host or cells: HEK293T
# Procedure: HEK293T light and heavy SILAC cells were treated with DMSO and KB02-JQ1 (20 μM) or KB02-SLF (2 μM) for 24 hours, respectively. Light and heavy cells were collected and lysed in 1% NP-40 lysis buffer with complete protease inhibitor cocktail. Cells were vortexed and sonicated for 5 pulses (40%, 4). The supernatant was collected after centrifugation at 16,000 g for 10 min at 4° C. Protein concentration was determined by DC assay. 50 μg proteome from light and heavy samples were mixed, followed by methanol/chloroform precipitation. […] Next, the ratio of the peak areas under the light and heavy signals (signal-to-noise ratio>2.5) was calculated. […] In addition, peptides detected as ‘singletons,’ where only the heavy ion of a peptide pair was identified, but that cleared all other filtering parameters, were given a default assigned ratio of ‘20,’ which is defined as any measured ratio that is ≥20 and is the maximum ratio reported here.” The median SILAC ratios from quantified peptides were used as measures of protein abundance. The following quality filters were further applied to generate the plot: (1) proteins must have at least two quantified peptides; (2) proteins must be present in both replicates; (3) for each protein, the standard deviation of measured ratios of peptides must be <1.0.
# T3 sequence (Q15059 whole entry): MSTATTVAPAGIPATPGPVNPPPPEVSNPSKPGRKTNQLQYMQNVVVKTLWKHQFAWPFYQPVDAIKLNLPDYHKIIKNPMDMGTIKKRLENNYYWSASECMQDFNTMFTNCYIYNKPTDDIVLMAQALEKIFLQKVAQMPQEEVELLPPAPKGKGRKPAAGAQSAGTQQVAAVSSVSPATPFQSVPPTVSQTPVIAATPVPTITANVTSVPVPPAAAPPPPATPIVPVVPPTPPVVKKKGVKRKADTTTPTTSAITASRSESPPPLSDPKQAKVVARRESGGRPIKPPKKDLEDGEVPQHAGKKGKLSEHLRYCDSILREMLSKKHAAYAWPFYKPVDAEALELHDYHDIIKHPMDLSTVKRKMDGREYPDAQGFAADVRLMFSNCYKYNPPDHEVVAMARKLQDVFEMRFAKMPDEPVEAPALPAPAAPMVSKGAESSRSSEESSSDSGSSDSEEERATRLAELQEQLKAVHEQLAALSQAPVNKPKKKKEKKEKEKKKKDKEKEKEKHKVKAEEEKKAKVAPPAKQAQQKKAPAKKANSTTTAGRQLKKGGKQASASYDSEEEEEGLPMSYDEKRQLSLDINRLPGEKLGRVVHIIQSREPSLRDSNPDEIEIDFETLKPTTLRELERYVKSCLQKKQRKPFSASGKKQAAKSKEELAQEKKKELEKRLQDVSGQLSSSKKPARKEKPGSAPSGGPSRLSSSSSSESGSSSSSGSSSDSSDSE
# T1 sequence (Q9NXF7 whole entry): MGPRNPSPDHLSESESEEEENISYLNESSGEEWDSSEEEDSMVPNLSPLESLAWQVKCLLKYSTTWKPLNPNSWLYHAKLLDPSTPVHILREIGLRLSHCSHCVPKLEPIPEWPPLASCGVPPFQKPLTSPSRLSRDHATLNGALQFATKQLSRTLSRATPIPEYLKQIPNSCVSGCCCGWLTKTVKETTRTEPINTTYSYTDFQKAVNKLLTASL
concentration for degradation of BRD4 (BRD4) [µM],BRD3 abundance (MS-based proteomics) (BRD3),Structure (SMILES),degradation of HA-DCAF16 (HA-DCAF16),degradation of BRD4 (BRD4)
,,"CCC(C)(C)C(=O)C(=O)N1CCCC[C@H]1C(=O)O[C@H](CCc1ccc(OC)c(OC)c1)c1cccc(NC(=O)CCOCCOCCNC(=O)COc2ccc3c(c2)CCCN3C(=O)CCl)c1 [KB02-SLF, (R)-1-(3-(3-(2-(2-(2-((1-(2-chloroacetyl)-1,2,3,4-tetrahydroquinolin-6-yl)oxy)acetamido)ethoxy)ethoxy)propanamido)phenyl)-3-(3,4-dimethoxyphenyl)propyl (S)-1-(3,3-dimethyl-2-oxopentanoyl)piperidine-2-carboxylate]",degradation of HA-DCAF16 was not observed,
20 to 40,not BRD2 or BRD3,"Cc1sc2c(c1C)C(c1ccc(Cl)cc1)=N[C@@H](CC(=O)NCCOCCOCCNC(=O)COc1ccc3c(c1)CCCN3C(=O)CCl)c1nnc(C)n1-2 [KB02-JQ1, (S)-2-((1-(2-chloroacetyl)-1,2,3,4-tetrahydroquinolin-6-yl)oxy)-N-(2-(2-(2-(2-(4-(4-chlorophenyl)-2,3,9-trimethyl-6H-thieno[3,2-f][1,2,4]triazolo[4,3-a][1,4]diazepin-6-yl)acetamido)ethoxy)ethoxy)ethyl)acetamide]",,"promoted, in a concentration-dependent manner, the degradation of BRD4"
